According to US6872735B2, “LFA-1 antagonist compounds” (Genentech, Inc., priority 2000, dated 2005):

Key:
[1] = Serum/plasma protein binding (ultrafiltration, LC/MS-MS); type: in vitro ADME; conditions: pH 7.4, 37° C., Centrifree ultrafiltration
Protocol: Binding of test compounds was performed according to procedures described in Borga et al (Journal of Pharmacokinetics & Biopharmaceutics, 1997, 25(1):63-77) and Godolphin et al (Therapeutic drug monitoring, 1983, 5:319-23). Duplicate samples of 10 μl of test compound stock solution (1 μg/μL) was spiked into 1 mL of either buffer or serum/plasma adjusted to pH 7.4 using CO2 at room temperature. Samples were equilibrated by incubating vials in a water bath with shaker at 37° C. for 15 minutes. 200 μl of the buffer spiked sample was saved as prefiltrate. 800 μl of buffer spiked samples and 1 ml of serum spiked samples were centrifuged at 1500 g, 37° C., for 30 minutes in a Centrifree ultrafiltration device (Amicon Inc.). Pre and post-filtrates were then analyzed by LC/MS-MS and percent binding of test compound to serum/plasma protein was determined from the post and prefiltrates accounting for any non-specific binding determined from the buffer control.

[2] = target: recombinant human LFA-1 (LFA-1:ICAM-1) (Homo sapiens, UniProt P05107+P20701); assay: PLM2 antibody capture LFA-1:ICAM-1 assay
recombinant human LFA-1 (LFA-1:ICAM-1), sequence (P20701 26-1170): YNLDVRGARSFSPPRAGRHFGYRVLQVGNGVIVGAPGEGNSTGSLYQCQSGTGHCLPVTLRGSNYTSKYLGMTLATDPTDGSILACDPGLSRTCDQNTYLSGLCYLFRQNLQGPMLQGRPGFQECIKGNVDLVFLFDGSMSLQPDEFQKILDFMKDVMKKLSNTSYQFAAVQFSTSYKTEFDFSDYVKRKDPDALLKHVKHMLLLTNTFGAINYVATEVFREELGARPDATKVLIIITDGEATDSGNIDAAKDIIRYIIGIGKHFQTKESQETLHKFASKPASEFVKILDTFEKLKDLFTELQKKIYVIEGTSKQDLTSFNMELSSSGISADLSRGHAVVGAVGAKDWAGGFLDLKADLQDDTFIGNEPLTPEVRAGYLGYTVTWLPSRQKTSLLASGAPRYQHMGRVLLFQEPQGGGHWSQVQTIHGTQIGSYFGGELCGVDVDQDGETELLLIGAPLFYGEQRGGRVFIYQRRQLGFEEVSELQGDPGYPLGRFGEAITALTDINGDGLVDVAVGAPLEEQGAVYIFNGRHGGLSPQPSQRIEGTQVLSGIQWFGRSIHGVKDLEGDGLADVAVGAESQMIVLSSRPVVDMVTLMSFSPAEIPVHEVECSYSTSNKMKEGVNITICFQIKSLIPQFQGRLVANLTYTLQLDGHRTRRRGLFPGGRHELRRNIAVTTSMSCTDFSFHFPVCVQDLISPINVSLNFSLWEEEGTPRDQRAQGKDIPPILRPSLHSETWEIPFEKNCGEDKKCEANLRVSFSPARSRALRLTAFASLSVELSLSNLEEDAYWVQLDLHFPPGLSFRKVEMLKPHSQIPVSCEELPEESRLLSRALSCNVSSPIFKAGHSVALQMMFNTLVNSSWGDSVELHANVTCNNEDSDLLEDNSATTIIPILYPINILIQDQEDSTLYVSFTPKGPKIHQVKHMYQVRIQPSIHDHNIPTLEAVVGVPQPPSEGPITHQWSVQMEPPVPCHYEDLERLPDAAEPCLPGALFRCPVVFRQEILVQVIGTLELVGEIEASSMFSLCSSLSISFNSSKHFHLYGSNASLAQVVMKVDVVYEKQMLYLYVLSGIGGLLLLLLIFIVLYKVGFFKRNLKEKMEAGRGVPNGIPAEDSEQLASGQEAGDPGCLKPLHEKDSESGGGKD
recombinant human LFA-1 (LFA-1:ICAM-1), sequence (P05107 23-769): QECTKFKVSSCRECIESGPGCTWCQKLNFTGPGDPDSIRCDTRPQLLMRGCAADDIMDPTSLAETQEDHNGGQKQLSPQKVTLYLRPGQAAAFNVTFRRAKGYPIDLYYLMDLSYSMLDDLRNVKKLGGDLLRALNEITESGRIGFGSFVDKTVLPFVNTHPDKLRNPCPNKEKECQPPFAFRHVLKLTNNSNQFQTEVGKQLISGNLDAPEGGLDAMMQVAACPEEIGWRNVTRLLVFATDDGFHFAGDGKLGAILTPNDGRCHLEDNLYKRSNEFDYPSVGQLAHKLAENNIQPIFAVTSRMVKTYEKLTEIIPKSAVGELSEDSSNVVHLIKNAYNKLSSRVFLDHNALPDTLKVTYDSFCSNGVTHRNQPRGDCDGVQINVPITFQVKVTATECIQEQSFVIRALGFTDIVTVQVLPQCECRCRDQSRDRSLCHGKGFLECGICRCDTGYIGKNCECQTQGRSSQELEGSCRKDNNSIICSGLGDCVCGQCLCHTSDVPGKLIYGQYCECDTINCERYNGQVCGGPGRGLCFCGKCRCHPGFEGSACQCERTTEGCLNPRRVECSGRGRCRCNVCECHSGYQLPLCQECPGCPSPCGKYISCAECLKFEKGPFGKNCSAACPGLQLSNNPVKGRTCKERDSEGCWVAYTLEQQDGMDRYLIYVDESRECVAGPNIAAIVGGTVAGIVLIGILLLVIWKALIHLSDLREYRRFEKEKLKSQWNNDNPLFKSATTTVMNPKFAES
Protocol: The plates are blocked with 0.5% BSA in assay buffer (0.02M Hepes, 0.15M NaCl, and 1 mM MnCl2) 1 h at room temperature. Plates are washed with 50 mM Tris pH 7.5, 0.1M NaCl, 0.05% Tween 20 and 1 mM MnCl2. Purified full-length recombinant human LFA-1 protein is diluted to 2 μg/ml in assay buffer and 100 μl/well is added to plates and incubated 1 h at 37° C. Plates are washed 3×. 50 μl/well inhibitors, appropriately diluted in assay buffer, are added to a 2× final concentration and incubated for 30′ at 37° C. […] Plates are washed and bound ICAM-Ig is detected with Goat anti-HuIgG(Fc)-HRP for 1 h at room temperature. Plates are washed and developed with 100 μl/well TMB substrate for 5-10′ at room temperature.

| SMILES | fraction unbound at 15 min, 10 µg/mL [1] | IC50 [2] |
| --- | --- | --- |
| O=C(/C=C/c1ccco1)NCc1cc(Cl)c(C(=O)N[C@@H](CNC(=O)C2CCNCC2)C(=O)O)c(Cl)c1 [Compound 3] | 0.192 | 11 nM |
| O=C(/C=C/c1ccco1)NCc1cc(Cl)c(C(=O)N[C@@H](CNC(=O)[C@@H]2CCCN2)C(=O)O)c(Cl)c1 [Compound 4] | 0.171 | 4 nM |
| O=C(/C=C/c1ccco1)NCc1cc(Cl)c(C(=O)N[C@@H](CNC(=O)[C@H]2CCCN2)C(=O)O)c(Cl)c1 [Compound 5] | 0.169 | 8 nM |
| O=C(/C=C/c1ccco1)NCc1cc(Cl)c(C(=O)N[C@@H](CNC(=O)[C@@H]2CSCN2)C(=O)O)c(Cl)c1 [Compound 6] | 0.0457 | 7 nM |
| C[C@H]1CCN[C@@H]1C(=O)NC[C@H](NC(=O)c1c(Cl)cc(CNC(=O)/C=C/c2ccco2)cc1Cl)C(=O)O [Compound 13] | 0.224 | 4 nM |
| O=C(/C=C/c1ccco1)NCc1cc(Cl)c(C(=O)N[C@@H](CNC(=O)[C@H]2CSCN2)C(=O)O)c(Cl)c1 [Compound 15] | 0.0749 | 4 nM |
| CC(=O)N1CCC[C@H]1C(=O)NC[C@H](NC(=O)c1c(Cl)cc(CNC(=O)/C=C/c2ccco2)cc1Cl)C(=O)O [Compound 17] | 0.154 | 3 nM |
| CN(C[C@H](NC(=O)c1c(Cl)cc(CNC(=O)/C=C/c2ccco2)cc1Cl)C(=O)O)C(=O)[C@@H]1CCCN1 [Compound 35] | 0.486 | 9 nM |
| O=C(N[C@@H](CNC(=O)[C@H]1C[C@@H](O)CN1)C(=O)O)c1c(Cl)cc(C(O)CCc2cccc(Cl)c2)cc1Cl (stereo partly drawn) [Compound 37] | 0.0681 | – |
| O=C(/C=C/c1ccco1)NCc1cc(Cl)c(C(=O)N[C@@H](CNC(=O)[C@@H]2CSC(=O)N2)C(=O)O)c(Cl)c1 [Compound 38] | 0.0671 | 12 nM |
| O=C(/C=C/c1ccco1)NCc1cc(Cl)c(C(=O)N[C@@H](CNC(=O)[C@H]2NCC[C@@H]2O)C(=O)O)c(Cl)c1 [Compound 41] | 0.152 | 3 nM |
| O=C(/C=C/c1ccco1)NCc1cc(Cl)c(C(=O)N[C@@H](CNC(=O)C2CSCN2)C(=O)O)c(Cl)c1 (stereo partly drawn) [Compound 42] | 0.086 | 3 nM |
| O=C(/C=C/c1ccco1)NCc1cc(Cl)c(C(=O)N[C@@H](CNC(=O)C2CCCO2)C(=O)O)c(Cl)c1 (stereo partly drawn) [Compound 51] | 0.072 | 5 nM |

The remaining lines, values ahead:

| fraction unbound at 15 min, 10 µg/mL [1] | IC50 [2] | SMILES |
| --- | --- | --- |
| 0.228 | 2 nM | O=C(/C=C/c1ccco1)NCc1cc(Cl)c(C(=O)N[C@@H](CNC(=O)[C@@H]2CCCCN2)C(=O)O)c(Cl)c1 [Compound 9] |
| 0.341 | 3 nM | O=C(/C=C/c1ccco1)NCc1cc(Cl)c(C(=O)N[C@@H](CNC(=O)[C@H]2C[C@H](O)CN2)C(=O)O)c(Cl)c1 [Compound 10] |
| 0.205 | 2 nM | O=C(/C=C/c1ccco1)NCc1cc(Cl)c(C(=O)N[C@@H](CNC(=O)[C@H]2C[C@@H](O)CN2)C(=O)O)c(Cl)c1 [Compound 12] |
| 0.274 | 2 nM | O=C(/C=C/c1ccco1)NCc1cc(Cl)c(C(=O)N[C@@H](CNC(=O)[C@@H]2C[C@@H](O)CN2)C(=O)O)c(Cl)c1 [Compound 14] |
| 0.0716 | 2 nM | O=C(N[C@@H](CNC(=O)[C@@H]1CSCN1)C(=O)O)c1c(Cl)cc(C(O)CCc2cccc(O)c2)cc1Cl (stereo partly drawn) [Compound 36] |
| 0.0307 | 2 nM | O=C(/C=C/c1ccco1)NCc1cc(Cl)c(C(=O)N[C@@H](CNC(=O)[C@@H]2CSC(=S)N2)C(=O)O)c(Cl)c1 [Compound 40] |
| 0.17 | 2 nM | CC1CC[C@@H](C(=O)NC[C@H](NC(=O)c2c(Cl)cc(CNC(=O)/C=C/c3ccco3)cc2Cl)C(=O)O)N1 (stereo partly drawn) [Compound 44] |
